Entries after “also recorded” stand apart in the source; their conditions may differ.
Legend:
[1] = cited from earlier work
haemorrhagic E. coli = test: Example 6: haemorrhagic E. coli challenge of weaner pigs; type: in vivo; parameters: decrease in faecal shedding (total faecal culture scores) compared to saline treated controls / reduction in clinical signs compared to saline controls / reduction in E. coli culture scores at post-mortem compared to saline controls / reduction of bacterial load in the small intestine (foregut) compared with saline controls: concentration or dose not given beside the values
Procedure: Male weaner pigs, with a mean weight of 5.4 kg were allocated to groups of 8, with the mean weight being equalised between groups. Pigs were housed in group pens. Pigs were provided with pelleted feed and water ad libitum.
Pigs were treated with cytokines or the antibiotic, Apralan, and challenged with E. coli according to the schedule outlined in FIG. 42. E. coli were delivered orally in an 8 ml dose containing 10^8 cfu/ml. Blood was sampled from pigs by venipuncture at −2 days, day 0, and +6 days from initial challenge with E. coli as outlined in FIG. 42. Blood was assayed for immunological parameters as previously described. Pigs were weighed at day −2 and at the end of the trial on day 7.
Faecal samples were taken from each pig daily from day 2 to day 6 after challenge; these samples were cultured on sheep blood agar to quantify E. coli load. The condition of faeces on each day of challenge was noted as normal, wet or diarrhoea, as an indication of clinical signs.
At the conclusion of the experiment, pigs were euthanased and samples were taken from different areas in the gastro-intestinal tract, including the small intestine (25%, 50% and 75% along the length of the small intestine), the caecum and colon, and from the faeces. These post-mortem samples were also plated out on sheep blood agar to quantify E. coli load. Growth on sheep blood agar was scored from 0 to 5 (where 0 was no growth, 1 signified growth in the primary inoculum, 2 signified growth in the first streak, 3 signified growth in the 2nd streak, 4 signified growth in the 3rd streak, and 5 signified growth of E. coli in the final streak), and group means and standard errors were calculated.

[2] = tested on: Actinobacillus pleuropneumoniae; test: Example 12: Actinobacillus pleuropneumoniae (App) challenge: growth, clinical signs, lung pathology; type: in vivo, pigs
Excerpt: The following experiment was designed to determine whether IL-4 could improve the growth of immunologically challenged pigs compared to saline treated controls and positive controls treated with the non-steroidal anti-inflammatory drug (NSAID) Flunix. It was also devised to determine whether IL-4 could be delivered via plasmids.
Male pigs, with a mean starting weight of 52 kg, were allocated to 5 treatment groups (Table 8). Pigs were housed in group pens, with each pen containing a replicate from each of the treatment groups. Pigs were provided with pelleted feed and water ad libitum.
Recombinant IL-4 and saline were administered as 2 ml doses, given subcutaneously behind the ear. Plasmids were administered in 1 ml doses, given intramuscularly in the hind-leg. Flunix was administered as a 2 ml dose according to the manufacturer's instructions, and delivered intramuscularly in the neck. The timetable of administration is outlined in Table 9 below.
(§1) Due to the intermittent availability of Actinobacillus pleuropneumoniae (App), the App challenge was performed separately on the 2 rooms, resulting in different time schedules for each room, as outlined in Table 9. Prior to each challenge, pigs were treated with recombinant cytokines, flunix or plasmids as described above; the timing of treatments with respect to challenge is described in Table 9. Pigs were anaesthetised and infected intratracheally with 7.5×10^5 […] on day 0.
(§2) Briefly, assays were performed on blood samples using standard techniques, including: white blood cell counts performed using an automated cell counter; differential cell counts performed manually on stained blood smears; lymphocyte subset enumeration via flow cytometry; neutrophil function determined by flow cytometry; lymphocyte proliferation determined using a thymidine incorporation assay in response to mitogens; total IgG and IgA levels were identified using indirect sandwich ELISA; levels of mRNA for pro-inflammatory cytokines was detected by RT-PCR. TNF levels were additionally measured in serum by bioassay using L929 target cells. Pigs were weighed weekly from delivery of plasmids and for 2 weeks after challenge.
IL-4 delivered as a recombinant caused a reduction of 36% in the presence of clinical symptoms compared to pigs treated with saline, while IL-4 delivered in plasmid form produced a reduction of 62% compared to saline-treated controls (45% reduction compared to plasmid-treated controls).
At the conclusion of the trial, pigs were euthanased and the lungs removed for post-mortem examination. Lungs were scored for pleurisy from 0-5 (FIG. 79) and the degree of pleuropneumonia was determined by weighing affected lung and expressed as a percentage of total lung weight (FIG. 80).

TNFα = test: Example 12: TNFα in serum after App challenge (bioassay, L929 target cells); type: in vivo, pigs; conditions: day 13 after challenge
Procedure: as §1
[…] Blood was assayed for immunological parameters as previously described.
as §2

[3] = tested on: Brachyspira (Serpulina) hyodysenteriae; test: Example 7: swine dysentery challenge, IL-5 prophylactic; type: in vivo, pigs
Excerpt: (§3) One aim of this example was to determine whether IL-5 could improve the health of pigs infected with an enteric inflammatory pathogen causing swine dysentery, Brachyspira (Serpulina) hyodysenteriae. A further aim was to determine whether IL-5 could improve the growth rate of pigs under conditions of challenge with swine dysentery.
(§4) Male pigs with a mean starting weight of 6.5 kg, were allocated to treatment groups consisting of eight pigs (Table 6). Pigs were housed in group pens, with each pen containing a replicate from each of the treatment groups. One group of 8 pigs was housed in a separate room and left uninfected to act as untreated controls. Pigs were provided with pelleted feed and water ad libitum.
(§5) Prior to swine dysentery challenge, pigs were treated with recombinant IL-5 or saline, as described in Table 6. Cytokines and the antibiotic, Lincomycin, were delivered by intramuscular injection at intervals outlined in Table 7. Pigs were infected with Brachyspira hyodysenteriae at day 0, day 1 and day 2, given as an oral bolus of 120 ml of spirochaete culture in log phase of growth, containing approximately […].
(§6) Faecal swabs and blood samples were taken from each pig at intervals described in Table 7. Faecal swabs were cultured for the presence of spirochaetes. Blood samples were assayed for immunological parameters as described in example 1 above. Pigs were weighed at weekly intervals throughout the experiment, which was terminated by euthanasia on days 19 and 20 after the initial challenge. At post mortem swabs from areas of the hindgut were cultured for the presence of spirochaetes, and the gross pathological condition of the gastro-intestinal tissue noted.

[4] = tested on: Brachyspira (Serpulina) hyodysenteriae; test: Example 13: swine dysentery challenge, IL-4 prophylactic; type: in vivo, pigs
Excerpt: as §3, with “The” for “One”, “IL-4” for “IL-5”
as §4, with “10).” for “6).”
as §5, with “IL-4” for “IL-5”, “10.” for “6.”, “Lincocin,” for “Lincomycin,”, “11.” for “7.”, “120ml” for “120 ml”
as §6, with “11.” for “7.”

CC(=O)OC/C=C(C)/C=C/C=C(C)/C=C/C1=C(C)CCCC1(C)C [Retinyl acetate]
IL-5 level and IL-4- and IL-5-containing cells in small intestinal mucosa ([1]; mice fed low-protein diet, 1 mg): significantly restored the IL-5 level and the number of IL-4- and IL-5-containing cells
anti-CT IgA level in intestinal mucosa ([1]; mouse, in vivo): prevented the decline of anti-CT IgA level in the protein-deficient mice

CN[C@@H]1[C@@H](O[C@H]2O[C@H](CO)[C@@H](N)[C@H](O)[C@H]2O)OC2C[C@@H](N)[C@@H](O[C@H]3[C@H](O)[C@@H](O)[C@H](N)C[C@@H]3N)OC2[C@@H]1O (stereo partly drawn) [Apralan, reference compound]
clinical signs (wet faeces or diarrhoea) (haemorrhagic E. coli; 5 days after challenge): less recordings of wet faeces than did saline controls, but also displayed a minor increase in the prevalence of diarrhoea
E. coli shedding in faeces (faecal culture) (haemorrhagic E. coli; day 2 to day 6 after challenge): decreased E. coli shedding in faeces; also recorded: least bacterial shedding of all treatments
decrease in faecal shedding (total faecal culture scores) compared to saline treated controls (haemorrhagic E. coli; entire challenge period): 80%
appetite (daily feed intake per pig) during E. coli challenge (haemorrhagic E. coli; pig, in vivo): improved appetite compared to saline treated pigs
bacterial load in areas of the gastro-intestinal tract at post-mortem (haemorrhagic E. coli; pig, in vivo): reduced bacterial load in most areas of the gastro-intestinal tract
group mean total E. coli culture score at post-mortem (out of a possible 30) (haemorrhagic E. coli; pig, in vivo): 12
reduction in clinical signs compared to saline controls (haemorrhagic E. coli; pig, in vivo): 27%
bacterial loads in the hindgut area (caecum and colon) (haemorrhagic E. coli; post-mortem): lowest of all treatments
reduction of bacterial load in the small intestine (foregut) compared with saline controls (haemorrhagic E. coli; post-mortem): 32%

CNC[C@H](O)[C@@H](O)[C@H](O)[C@H](O)CO.Cc1c(Nc2ncccc2C(=O)O)cccc1C(F)(F)F [flunix, reference compound]
growth during the (first) week of App challenge ([2]; pig, in vivo): weight loss
growth in the second week of challenge ([2]; pig, in vivo): poorest growth of all groups in the second week of challenge
pleurisy at necropsy (score 0-5) ([2]; pig, in vivo): less pleurisy than the saline controls
weight gain over the 2 week period following challenge with App ([2]; pig, in vivo): lowest growth over the 2 week challenge period
weight gain over the 2 week period following challenge with App ([2]; pig, in vivo, listed as Flunix): poorest performing treatment in terms of growth
percentage of lung affected by App lesions ([2]; vs saline-treated controls): greatly reduced
TNFα production (serum) (TNFα): failed to inhibit the production of TNFα

CCC[C@@H]1C[C@@H](C(=O)N[C@@H]([C@H]2O[C@H](SC)[C@H](O)[C@@H](O)[C@H]2O)[C@@H](C)O)N(C)C1 [Lincocin, Lincomycin, reference compound]
spirochaete shedding in faeces (faecal culture) ([3]; after challenge): no signs of faecal spirochaete shedding by day 14
reduction in the number of spirochaetes compared to saline treated pigs ([3]; anterior colon, post mortem): 89%
reduction in the number of spirochaetes compared to saline treated pigs ([3]; caecum, post mortem): 93%
reduction in the number of spirochaetes compared to saline treated pigs ([3]; faecal, post mortem): 100%
incidence of clinical signs in faeces (of 8 pigs) ([3]; post mortem): one
reduction in the number of spirochaetes compared to saline treated pigs ([3]; posterior colon, post mortem): 88%
spirochaete shedding in faeces (faecal culture) ([4]; after challenge): no signs of faecal spirochaete shedding by day 14
gross pathology associated with dysentery ([4]; anterior colon, post mortem): reduced the incidence of pathological symptoms in anterior and posterior colon
total weight gained over the challenge period ([4]; day 7 prior to challenge to slaughter at days 19 and 20): 6.9 kg
mean weight at the end of the trial ([4]; days 19 and 20 after infection): 12.2 kg
incidence of clinical signs in faeces (of 8 pigs) ([4]; post mortem): one
gross pathology associated with dysentery ([4]; posterior colon, post mortem): reduced the incidence of pathological symptoms in anterior and posterior colon

From patent publication US20040170601A1, “Method of improving the growth performance of an animal” (priority 2001, published 2004)
